Test results taken from PMC5732813, “Novel piplartine-containing ruthenium complexes: synthesis, cell growth inhibition, apoptosis induction and ROS production on HCT116 cells” (Oncotarget, 2017).
“And” between values parts separate entries of the source, which are not always exact repeats. Identical values can stand only once.

Key:
Format in all cases: cell-based
[1] = system: WT SV40 MEF (wild-type immortalized mouse embryonic fibroblast); experiment: Cytotoxic activity, alamar blue assay, WT SV40 MEF; settings: Mus musculus, Fibroblast, 72 h
Excerpt: (§1) HCT116 (human colon carcinoma), HepG2 (human hepatocellular carcinoma), HSC-3 (human oral squamous cell carcinoma), SCC-4 (human oral squamous cell carcinoma), SCC-9 (human oral squamous cell carcinoma), HL-60 (human promyelocytic leukemia), K-562 (human chronic myelogenous leukemia), B16-F10 (murine melanoma), MRC-5 (human lung fibroblast), WT SV40 MEF (wild-type immortalized mouse embryonic fibroblast) and BAD KO SV40 MEF (BAD gene knockout immortalized mouse embryonic fibroblast) cell lines were obtained from the American Type Culture Collection (ATCC, Manassas, VA, USA) and cultured in RPMI-1640 medium (Gibco-BRL, Gaithersburg, MD, USA) with 10% fetal bovine serum (Life, Carlsbad, CA, USA), 2 mM L-glutamine (Vetec Química Fina, Duque de Caxias, RJ, Brazil) and 50 μg/mL gentamycin (Life, Carlsbad, CA, USA). Adherent cells were collected by treatment with 0.25% trypsin EDTA solution (Gibco-BRL, Gaithersburg, MD, USA). All cell lines were cultured in flasks at 37°C in 5% CO2 and sub-cultured every 3-4 days to maintain exponential growth.
(§2) Cell viability was quantified using the alamar blue assay, according to Ahmed et al.. Cells were inserted in 96-well plates for all experiments (7 x 10^4 cells/mL for adherent cells or 3 x 10^5 cells/mL for suspended cells in 100 μL of medium). […] Negative controls received the vehicle that was used for diluting the compounds tested.

[2] = system: SCC-4 (human oral squamous cell carcinoma); experiment: Cytotoxic activity, alamar blue assay, SCC-4
Excerpt: as §1, §2

[3] = system: HepG2 (human hepatocellular carcinoma); experiment: Cytotoxic activity, alamar blue assay, HepG2
Excerpt: as §1, §2

[4] = system: HSC-3 (human oral squamous cell carcinoma); experiment: Cytotoxic activity, alamar blue assay, HSC-3
Excerpt: as §1, §2

[5] = system: HCT116 cells; experiment: Gene expression analysis by qPCR array (TaqMan Array Human Molecular Mechanisms of Cancer); settings: HCT116, 12 h, DOX 1 μM, PL 10 μM, 1 2.5 μM, 2 5 μM, negative control RQ = 1.0
Description: HCT116 cells were plated in bottles tissue culture (7x10^4 cells/mL). After 12h of incubation with the complexes, total RNA was isolated from the cells using the RNeasy Plus mini kit (Qiagen, Hilden, Germany) according to the manufacturer’s instructions. The RNA was evaluated by fluorimetry (QuBit™, Life Technologies, Camarillo, CA, EUA). RNA reverse transcription was performed using Superscript VILO™ (Invitrogen Corporation, Waltham, MA, USA). A 96-well plate TaqMan® Array Human Molecular Mechanisms of Cancer (ID 4418806, Applied Biosystems™, Foster City, CA, EUA) was used for the gene expression study by qPCR. The reactions were conducted in the ABI ViiA7 (Applied Biosystems™, Foster City, CA, EUA). The cycle conditions comprised 2 min at 50 °C, 20 s at 95 °C, then 40 cycles of 3 s at 95 °C and 30 s at 60 °C. […] The GAPDH, 18S and HPRT1 genes were used for normalization. All experiments were performed in DNase/RNase free conditions.

SMILES: COc1cc(/C=C/C(=O)N2CCC=CC2=O)cc(OC)c1OC [Piplartine]
- IC50 [1]: 4.5 µM
- Selectivity index (SI) ([2]; SI = IC50[MRC-5]/IC50[SCC-4]): 1.1
- Selectivity index (SI) ([2]; SI = IC50[PBMC]/IC50[SCC-4]): 2.2
- IC50 ([3]; Homo sapiens, HepG2, 72 h): 6.3 µM
- Selectivity index (SI) ([3]; SI = IC50[MRC-5]/IC50[HepG2]): 2.7
- Selectivity index (SI) ([3]; SI = IC50[PBMC]/IC50[HepG2]): 5.4
- Selectivity index (SI) ([4]; SI = IC50[MRC-5]/IC50[HSC-3]): 2.3
- Selectivity index (SI) ([4]; SI = IC50[PBMC]/IC50[HSC-3]): 4.6
- RQ ABL1 [5]: 1.144
- RQ AKT1 [5]: 1.285
- RQ AKT2 [5]: 1.068
- RQ APC [5]: 1.236
- RQ BAX [5]: 2.160
- RQ BCAR1 [5]: 0.705
- RQ BCL2L1 [5]: 0.822
- RQ BCL2L11 [5]: 1.536
- RQ BID [5]: 0.528
- RQ BRAF [5]: 1.512
- RQ CASP8 [5]: 0.915
- RQ CASP9 [5]: 1.065
- RQ CCND3 [5]: 1.144
- RQ CCNE1 [5]: 1.418
- RQ CDC42 [5]: 2.542
- RQ CDK2 [5]: 0.722
- RQ CDK4 [5]: 0.873
- RQ CDKN1A [5]: 2.847
- RQ CDKN1B [5]: 1.545
- RQ CRK [5]: 0.381
- RQ CTNNB1 [5]: 1.026
- RQ DVL1 [5]: 0.913
- RQ E2F1 [5]: 0.764
- RQ ELK1 [5]: 0.625
- RQ ERBB2 [5]: 1.273
- RQ FAS [5]: 1.371
- RQ FGF2 [5]: 0.854
- RQ GRB2 [5]: 1.219
- RQ GSK3B [5]: 1.249
- RQ GUSB [5]: 5.2
- RQ HRAS [5]: 0.928
- RQ ITGB1 [5]: 0.784
- RQ KRAS [5]: 0.133
- RQ MAPK1 [5]: 1.098
- RQ MAPK8 [5]: 0.887
- RQ MAPK14 [5]: 1.009
- RQ MDM2 [5]: 0.901
- RQ MYC [5]: 0.271
- RQ NFKB1 [5]: 0.870
- RQ NFKB2 [5]: 0.818
- RQ NRAS [5]: 0.600
- RQ PIK3CA [5]: 0.910
- RQ RB1 [5]: 1.314
- RQ RELA [5]: 1.240
- RQ RHOA [5]: 0.979
- RQ SRC [5]: 1.076
- RQ TCF3 [5]: 0.774
- RQ TGFB1 [5]: 0.947
- RQ TGFBR1 [5]: 0.545
- RQ VEGFA [5]: 1.245
- RQ BCL2 ([5]; listed as PL): 1.1 and 1.049
- RQ CCND1 ([5]; listed as PL): 0.7 and 0.669
- RQ CDH1 ([5]; listed as PL): 2.5 and 2.494
- RQ CDKN2A ([5]; listed as PL): 1.6 and 1.575
- RQ CYCS ([5]; listed as PL): 1.0 and 0.954
- RQ EGFR ([5]; listed as PL): 1.2 and 1.173
- RQ FADD ([5]; listed as PL): 0.4 and 0.369
- RQ FN1 ([5]; listed as PL): 2.0 and 1.952
- RQ FOS ([5]; listed as PL): 31.0 and 30.985
- RQ FYN ([5]; listed as PL): 1.7 and 1.675
- RQ FZD1 ([5]; listed as PL): 1.0 and 0.953
- RQ IGF1R ([5]; listed as PL): 2.1 and 2.082
- RQ ITGA2B ([5]; listed as PL): 3.0 and 2.963
- RQ ITGAV ([5]; listed as PL): 1.0 and 0.993
- RQ JUN ([5]; listed as PL): 3.8 and 3.837
- RQ KDR ([5]; listed as PL): 8.3 and 8.270
- RQ MAP2K1 ([5]; listed as PL): 0.8 and 0.759
- RQ MAP3K5 ([5]; listed as PL): 0.6 and 0.609
- RQ MAPK3 ([5]; listed as PL): 1.7 and 1.726
- RQ MAX ([5]; listed as PL): 3.1 and 3.051
- RQ NFKBIA ([5]; listed as PL): 2.0 and 1.989
- RQ PIK3R1 ([5]; listed as PL): 2.4 and 2.352
- RQ PTEN ([5]; listed as PL): 0.5 and 0.501
- RQ PTK2 ([5]; listed as PL): 0.6 and 0.616
- RQ PTK2B ([5]; listed as PL): 2.3 and 2.265
- RQ RAC1 ([5]; listed as PL): 0.7 and 0.731
- RQ RAF1 ([5]; listed as PL): 0.6 and 0.574
- RQ SHC1 ([5]; listed as PL): 0.2 and 0.243
- RQ SMAD4 ([5]; listed as PL): 0.9 and 0.942
- RQ SOS1 ([5]; listed as PL): 0.9 and 0.851
- RQ SPP1 ([5]; listed as PL): 1.3 and 1.338
- RQ TGFBR2 ([5]; listed as PL): 1.2 and 1.177
- RQ TP53 ([5]; listed as PL): 1.2 and 1.182
